According to patent US4511565A, “7α-Acylthio-1α,2α-methylene- 3-oxo-17α-pregn-4-ene-21,17-carbolactones, their production and pharmaceutical preparations containing them” (Schering Aktiengesellschaft, priority 1982, dated 1985):
“Also recorded” adds a separate entry of the source.

Legend:
[1] = test system: aldosterone; assay: antialdosterone effect in the experimental model by Hollmann; assay type: in vivo; details: spironolactone=1
From the text: The new compounds of Formula I have the properties of neutralizing or reversing the effect of aldosterone or deoxycorticosterone on the elimination of sodium and potassium. The compounds according to this invention are thus suited for the treatment of certain forms of hypertension, e.g., those treatable by spironolactone, edemas, primary aldosteronism, and other endocrine disturbances caused by aldosterone. They can also be used as diuretics.

[2] = test system: male patients; details: extended treatment of male patients; traced to antiandrogenic side effect; cited from earlier work
[3] = test system: women; details: ascribed to the gestagenic side effect; cited from earlier work

SMILES | Relative antialdosterone effect [1] | undesirable endocrine side effects in men [2] | side effects on women [3]
CC(=O)S[C@@H]1CC2=CC(=O)[C@@H]3C[C@@H]3[C@]2(C)[C@H]2CC[C@@]3(C)[C@@H]([C@@H]4C[C@@H]4[C@@]34CCC(=O)O4)[C@H]12 [B, 7α-acetylthio-1α,2α;15β,16β-dimethylene-3-oxo-17α-pregn-4-ene-21,17-carbolactone] | 2-3 |  | 
CC(=O)S[C@@H]1CC2=CC(=O)[C@@H]3C[C@@H]3[C@]2(C)[C@H]2CC[C@@]3(C)[C@@H]([C@H]4C[C@H]4[C@@]34CCC(=O)O4)[C@H]12 [C, 7α-acetylthio-1α,2α;15α,16α-dimethylene-3-oxo-17α-pregn-4-ene-21,17-carbolactone] | 3-4 |  | 
CC(=O)S[C@@H]1CC2=CC(=O)CC[C@]2(C)[C@H]2CC[C@@]3(C)[C@@H](CC[C@@]34CCC(=O)O4)[C@H]12 [Spironolactone, spironolactone] |  | gynecomastia; also recorded: impotence | amenorrhea; also recorded: menstrual irregularities
